Data set [1] has as its system recombinant NL4-3 virus (Renilla luciferase reporter) in MT-2 cells. The data set can be described thus: HIV cell culture assay (antiviral activity, luciferase readout in infected MT-2 cells). The settings on record: NL43. It is filed as cell-based. The method, then:
HIV cell culture assay—MT-2 cells, 293T cells and the proviral DNA clone of NL4-3 virus were obtained from the NIH AIDS Research and Reference Reagent Program. MT-2 cells were propagated in RPMI 1640 media supplemented with 10% heat inactivated fetal bovine serum (FBS), […]. The 293T cells were propagated in DMEM media supplemented with 10% heat inactivated FBS, […]. A recombinant NL4-3 proviral clone, in which a section of the nef gene was replaced with the Renilla luciferase gene, was used to make the reference virus used in these studies. The recombinant virus was prepared through transfection of the recombinant NL4-3 proviral clone into 293T cells using Transit-293 Transfection Reagent from Mirus Bio LLC (Madison, Wis.). Supernatent was harvested after 2-3 days and the amount of virus present was titered in MT-2 cells using luciferase enzyme activity as a marker by measuring luciferase enzyme activity. Luciferase was quantitated using the EnduRen Live Cell Substrate from Promega (Madison, Wis.). Antiviral activities of compounds toward the recombinant virus were quantified by measuring luciferase activity in MT-2 cells infected for 4-5 days with the recombinant virus in the presence of serial dilutions of the compound.
The 50% effective concentration (EC50) was calculated by using the exponential form of the median effect equation where (Fa)=1/[1+(EC50/drug conc.)m] (Johnson V A, Byington RT. Infectivity Assay. In Techniques in HIV Research, ed. Aldovini A, Walker B D. 71-76. New York: Stockton Press. 1990). The 50% inhibitory concentration (EC50) was calculated by using the exponential form of the median effect equation where percent inhibition=1/[1+(EC50/drug concentration)m], where m is a parameter that reflects the slope of the concentration-response curve.

A short description of data set [2]: Compound cytotoxicity, XTT-based colorimetric assay. It is filed as cell-based. The following applies: human. The protocol:
Compound cytotoxicity and the corresponding CC50 values were determined using the same protocol as described in the antiviral assay except that uninfected cells were used. Cytotoxicity was assessed on day 4 in uninfected MT2 cells by using a XTT (2,3-bis [2-Methoxy-4-nitro-5-sulfophenyl]-2H-tetrazolium-5-carboxyanilide inner salt)-based colorimetric assay (Sigma-Aldrich, St Louis, Mo.).
Background: Tetrazolium dyes change colour on reduction, which living cells bring about.

Setting [3] is: uninfected MT2 cells, day 4, XTT, read-out: CC50.

Like-named read-outs stand apart in the source and are kept apart here.

Take `C[C@@H]1CN(c2ccc3c(=O)n(-c4ccc(Cl)c5c(NS(C)(=O)=O)nn(CC(F)(F)F)c45)c([C@H](Cc4cc(F)cc(F)c4)NC(=O)Cn4ccc(C5CC5)n4)nc3n2)C[C@H](C)O1` (atropisomer, axis not shown; (P)) [Example 17, N—((S)-1-((3P)-3-(4-chloro-3-(methylsulfonamido)-1-(2,2,2-trifluoroethyl)-1H-indazol-7-yl)-7-((2S,6R)-2,6-dimethylmorpholino)-4-oxo-3,4-dihydropyrido[2,3-d]pyrimidin-2-yl)-2-(3,5-difluorophenyl)ethyl)-2-(3-cyclopropyl-1H-pyrazol-1-yl)acetamide]: in data set [1], the 50% effective concentration (EC50) was 0.24 nM. Besides, in data set [2] (setting [3]), the CC50 at 4 days was more than 500 nM.
In the case of `C[C@@H]1CN(c2ccc3c(=O)n(-c4ccc(Cl)c5c(NS(C)(=O)=O)nn(CC(F)F)c45)c([C@H](Cc4cc(F)cc(F)c4)NC(=O)Cn4nc(C(F)F)c5c4C(F)(F)[C@@H]4C[C@H]54)nc3n2)C[C@H](C)O1` (atropisomer, axis not shown; (aR)) [Example 3, N—((S)-1-(3-(4-chloro-1-(2,2-difluoroethyl)-3-(methylsulfonamido)-1H-indazol-7-yl)-7-((2S,6R)-2,6-dimethylmorpholino)-4-oxo-3,4-dihydropyrido[2,3-d]pyrimidin-2-yl)-2-(3,5-difluorophenyl)ethyl)-2-((3bS,4aR)-3-(difluoromethyl)-5,5-difluoro-3b,4,4a,5-tetrahydro-1H-cyclopropa[3,4]cyclopenta[1,2-c]pyrazol-1-yl)acetamide], the EC50 in data set [1] was determined as 0.032 nM. Besides, in data set [2] (setting [3]), the 50% cytotoxic concentration (CC50) at 4 days is more than 500 nM.
On to `Cn1nc(NS(C)(=O)=O)c2c(Cl)ccc(-n3c([C@H](Cc4cc(F)cc(F)c4)NC(=O)Cn4nc(C(F)F)c5c4C(F)(F)[C@@H]4C[C@H]54)nc4nc(N5CCO[C@H](C(F)(F)F)C5)ccc4c3=O)c21` (atropisomer, axis not shown; (P)) [Example 11, N—((S)-1-((3P)-3-(4-chloro-1-methyl-3-(methylsulfonamido)-1H-indazol-7-yl)-4-oxo-7-((S)-2-(trifluoromethyl)morpholino)-3,4-dihydropyrido[2,3-d]pyrimidin-2-yl)-2-(3,5-difluorophenyl)ethyl)-2-((3bS,4aR)-3-(difluoromethyl)-5,5-difluoro-3b,4,4a,5-tetrahydro-1H-cyclopropa[3,4]cyclopenta[1,2-c]pyrazol-1-yl)acetamide], for which, in data set [1], the concentration giving a half-maximal response (EC50) was found to be 0.019 nM. In addition, the CC50 at 4 days in data set [2] (setting [3]) is more than 100 nM.
Consider `CC(F)CCNc1ccc2c(=O)n(-c3ccc(Cl)c4c(NS(C)(=O)=O)nn(C)c34)c([C@H](Cc3cc(F)cc(F)c3)NC(=O)Cn3nc(C(F)F)c4c3C(F)(F)[C@@H]3C[C@H]43)nc2n1` (stereo partly drawn) [Example 9, N-((1S)-1-((3P)-3-(4-chloro-1-methyl-3-(methylsulfonamido)-1H-indazol-7-yl)-7-((3-fluorobutyl)amino)-4-oxo-3,4-dihydropyrido[2,3-d]pyrimidin-2-yl)-2-(3,5-difluorophenyl)ethyl)-2-((3bS,4aR)-3-(difluoromethyl)-5,5-difluoro-3b,4,4a,5-tetrahydro-1H-cyclopropa[3,4]cyclopenta[1,2-c]pyrazol-1-yl)acetamide], for which, in data set [1], the EC50 is 0.046 nM. Besides, in data set [2] (setting [3]), the CC50 at 4 days was more than 100 nM.
As to `Cn1nc(NS(C)(=O)=O)c2c(Cl)ccc(-n3c([C@H](Cc4cc(F)cc(F)c4)NC(=O)Cn4nc(C(F)F)c5c4C(F)(F)[C@@H]4C[C@H]54)nc4nc(N5C6CCC5COC6)ccc4c3=O)c21` [Example 20, N-((1S)-1-(7-(3-oxa-8-azabicyclo[3.2.1]octan-8-yl)-(3P)-3-(4-chloro-1-methyl-3-(methylsulfonamido)-1H-indazol-7-yl)-4-oxo-3,4-dihydropyrido[2,3-d]pyrimidin-2-yl)-2-(3,5-difluorophenyl)ethyl)-2-((3bS,4aR)-3-(difluoromethyl)-5,5-difluoro-3b,4,4a,5-tetrahydro-1H-cyclopropa[3,4]cyclopenta[1,2-c]pyrazol-1-yl)acetamide], the EC50 in data set [1] worked out at 0.05 nM. For the same compound, the CC50 at 4 days in data set [2] is more than 100 nM.
With `Cn1nc(NS(C)(=O)=O)c2c(Cl)ccc(-n3c([C@H](Cc4cc(F)cc(F)c4)NC(=O)Cn4nc(C(F)F)c5c4C(F)(F)[C@@H]4C[C@H]54)nc4nc(N5CC6CCC(C5)O6)ccc4c3=O)c21` [Example 21, N-((1S)-1-(7-(8-oxa-3-azabicyclo[3.2.1]octan-3-yl)-(3P)-3-(4-chloro-1-methyl-3-(methylsulfonamido)-1H-indazol-7-yl)-4-oxo-3,4-dihydropyrido[2,3-d]pyrimidin-2-yl)-2-(3,5-difluorophenyl)ethyl)-2-((3bS,4aR)-3-(difluoromethyl)-5,5-difluoro-3b,4,4a,5-tetrahydro-1H-cyclopropa[3,4]cyclopenta[1,2-c]pyrazol-1-yl)acetamide], the concentration giving a half-maximal response (EC50) in data set [1] was 0.058 nM. Besides, the CC50 at 4 days in data set [2] (setting [3]) was more than 100 nM.
For `Cn1nc(NS(C)(=O)=O)c2c(Cl)ccc(-n3c([C@H](Cc4cc(F)cc(F)c4)NC(=O)Cn4nc(C(F)F)c5c4C(F)(F)[C@@H]4C[C@H]54)nc4nc(NCCC(C)(C)F)ccc4c3=O)c21` (atropisomer, axis not shown; (P)) [Example 24, N—((S)-1-((3P)-3-(4-chloro-1-methyl-3-(methylsulfonamido)-1H-indazol-7-yl)-7-((3-fluoro-3-methylbutyl)amino)-4-oxo-3,4-dihydropyrido[2,3-d]pyrimidin-2-yl)-2-(3,5-difluorophenyl)ethyl)-2-((3bS,4aR)-3-(difluoromethyl)-5,5-difluoro-3b,4,4a,5-tetrahydro-1H-cyclopropa[3,4]cyclopenta[1,2-c]pyrazol-1-yl)acetamide], in data set [1], the 50% effective concentration (EC50) stood at 0.04 nM. For the same compound, in data set [2] (setting [3]), the CC50 at 4 days was more than 100 nM.
The like results for `Cn1nc(NS(C)(=O)=O)c2c(Cl)ccc(-n3c([C@H](Cc4cc(F)cc(F)c4)NC(=O)Cn4nc(C(F)F)c5c4C(F)(F)[C@@H]4C[C@H]54)nc4nc(N5CCOC(C)(C)C5)ccc4c3=O)c21` (atropisomer, axis not shown; (P)) [Example 29, N—((S)-1-((3P)-3-(4-chloro-1-methyl-3-(methylsulfonamido)-1H-indazol-7-yl)-7-(2,2-dimethylmorpholino)-4-oxo-3,4-dihydropyrido[2,3-d]pyrimidin-2-yl)-2-(3,5-difluorophenyl)ethyl)-2-((3bS,4aR)-3-(difluoromethyl)-5,5-difluoro-3b,4,4a,5-tetrahydro-1H-cyclopropa[3,4]cyclopenta[1,2-c]pyrazol-1-yl)acetamide] were, in that order, 0.035 nM and more than 100 nM.
On to `CCN(CCC(F)(F)F)c1ccc2c(=O)n(-c3ccc(Cl)c4c(NS(C)(=O)=O)nn(C)c34)c([C@H](Cc3cc(F)cc(F)c3)NC(=O)Cn3nc(C(F)F)c4c3C(F)(F)[C@@H]3C[C@H]43)nc2n1` [Example 10, N—((S)-1-((3P)-3-(4-chloro-1-methyl-3-(methylsulfonamido)-1H-indazol-7-yl)-7-(ethyl(3,3,3-trifluoropropyl)amino)-4-oxo-3,4-dihydropyrido[2,3-d]pyrimidin-2-yl)-2-(3,5-difluorophenyl)ethyl)-2-((3bS,4aR)-3-(difluoromethyl)-5,5-difluoro-3b,4,4a,5-tetrahydro-1H-cyclopropa[3,4]cyclopenta[1,2-c]pyrazol-1-yl)acetamide], for which the EC50 in data set [1] was 0.037 nM. For the same compound, the cytotoxic concentration (CC50) at 4 days in data set [2] (setting [3]) is more than 100 nM.
For `C[C@@H]1CN(c2ccc3c(=O)n(-c4ccc(Cl)c5c(NS(C)(=O)=O)nn(CC(F)(F)F)c45)c([C@H](Cc4cc(F)cc(F)c4)NC(=O)Cn4nc(C(F)(F)F)c5c4C(F)(F)[C@@H]4C[C@H]54)nc3n2)C[C@H](C)O1` (atropisomer, axis not shown; (aR)) [Example 8, N—((S)-1-(3-(4-chloro-3-(methylsulfonamido)-1-(2,2,2-trifluoroethyl)-1H-indazol-7-yl)-7-((2S,6R)-2,6-dimethylmorpholino)-4-oxo-3,4-dihydropyrido[2,3-d]pyrimidin-2-yl)-2-(3,5-difluorophenyl)ethyl)-2-((3bS,4aR)-5,5-difluoro-3-(trifluoromethyl)-3b,4,4a,5-tetrahydro-1H-cyclopropa[3,4]cyclopenta[1,2-c]pyrazol-1-yl)acetamide] the same measures were 0.032 nM and more than 500 nM.

In general, EC50 refers to the midpoint of the concentration-response curve. Broadly, the CC50 is the concentration giving 50% cytotoxicity.
